The text below walks through data of US20120213837A1, “COMPOSITIONS AND METHODS FOR BIOACTIVE COATINGS TO IMPROVE ALLOGRAFT INCORPORATION” (priority 2009, published 2012).

In one data set the test system is arterioles. The conditions noted are these: sustained release from 50:50 PLAGA films, 1:200 wt/wt; cited from earlier work.
In data set [1] the test system is SMA-positive lumens (mural cell recruitment). The data set is described as follows: Smooth muscle alpha-actin (SMA) immunostaining of tibial defect sections. It counts as in vivo, Sprague Dawley rats. The conditions noted are these: 6 weeks, interface/allograft regions, vs U and C groups. How it is done:
(§1) All animal surgeries were performed according to an approved protocol from the UVA Animal Care and Use Committee. Briefly, adult male Sprague Dawley rats (˜400 g) were randomly assigned to three different experimental groups: uncoated allograft (U), coated 1:12 PLAGA (C), and coated 1:12 PLAGA loaded with 1:200 FTY720 (C/L). Animals were anesthetized with isoflurane gas. Following anesthetization, the dorsal skin was sterilized with betadine and 70% ethanol. A small incision was made longitudinally over the midshaft of the tibia. Subperiosteal dissection was performed once the subcutaneous tissue was dissected over the anterior aspect of the tibia. […]
(§2) For CD45 staining to visualize leukocyte recruitment, four 7 μm-thick histological sections per sample (cryo-embedded) were blocked 3×10 minutes in PBS/saponin/BSA and immunolabeled with CD45 (BD Pharmingen) diluted 1:50 in PBS/saponin/BSA. […] To quantify changes in vascular remodeling (particularly recruitment of mural cells) in response to FTY720, SMA-positive cells that formed an obvious lumen were quantified in each tissue section. Total tissue area was measured in ImageJ, and the FTY720-mediated response was represented as a fraction of SMA-positive lumens per total tissue area.

The test system of data set [2] is critical size calvarial bone defects. As to conditions: 3D PLAGA scaffolds delivering FTY720; cited from earlier work.
In a further data set the test system is CD45+ leukocytes. The data set is described as follows: CD45 immunostaining of tibial defect sections. The format is in vivo, Sprague Dawley rats. As to conditions: 6 weeks, qualitative images. How it is done:
as §1, §2

The test system of data set [3] is allograft-host bone interface. The data set is described as follows: H&E and Masson's trichrome staining of tibial defects. It counts as in vivo, Sprague Dawley rats. As to conditions: 6 weeks healing, vs U and C groups. The procedure:
as §1
For CD45 staining to visualize leukocyte recruitment, four 7 μm-thick histological sections per sample (cryo-embedded) were blocked 3×10 minutes in PBS/saponin/BSA and immunolabeled with CD45 (BD Pharmingen) diluted 1:50 in PBS/saponin/BSA. […] To quantify changes in vascular remodeling (particularly recruitment of mural cells) in response to FTY720, SMA-positive cells that formed an obvious lumen were quantified in each tissue section. Total tissue area was measured in ImageJ, and the FTY720-mediated response was represented as a fraction of SMA-positive lumens per total tissue area. […]

In data set [4] the test system is host-bone-allograft integrated structure (excised tibias). The data set is described as follows: Post-operative mechanical properties, compression in Instron 4511. The format is in vivo, Sprague Dawley rats. The conditions noted are these: 6 weeks post-op, compression 1 mm/min, vs U and C groups. How it is done:
All animal surgeries were performed according to an approved protocol from the UVA Animal Care and Use Committee. Briefly, adult male Sprague Dawley rats (˜400 g) were randomly assigned to three different experimental groups: uncoated allograft (U), coated 1:12 PLAGA (C), and coated 1:12 PLAGA loaded with 1:200 FTY720 (C/L). Animals were anesthetized with isoflurane gas. Following anesthetization, the dorsal skin was sterilized with betadine and 70% ethanol. A small incision was made longitudinally over the midshaft of the tibia. Subperiosteal dissection was performed once the subcutaneous tissue was dissected over the anterior aspect of the tibia. A Dremel rotary tool with a Diamond Wheel accessory was used to make an 8 mm defect slightly distal to the tibial tubercle and the 8 mm allograft segment was inserted into the defect. A stab incision was made just medial to the patellar tendon and a 19.5 gauge needle was inserted into the intramedullary canal, through the allograft, into the distal intramedullary canal to resistance, and tamped flush to the bone. […]
A leading cause of allograft failure or post-operative complications includes mechanical instability at the bone-allograft interface. […] To determine the elastic modulus, the slope was calculated between the values of 0.07 to 0.08 strain, since this was the interval in which the elastic region existed in all the graphs.

For data set [5] the following is noted: in vivo; cited from earlier work.
Data set [6] in a line: In vitro release of 33P-labelled S1P from PLAGA-coated allografts; encapsulation efficiency. The format is physicochemical. How it is done:
Allograft samples were coated similarly to the above protocol with radio-labeled sphingosine-1-phosphate (S1P, Cayman Chemical, Ann Arbor Mich.) to measure drug release over a 14-day period. Specifically, 2.92 mg of S1P was resolubilized in MeCl to a final concentration of 2 mg/mL by frequent heating and vortexing. Using a conversion factor of 2.2×10^6 cpm/μCi and 1 μCi/μL, 6.8 μL of Phosphorus-33 (^33P) (Perkin Elmer, Inc., Waltham, Mass.) was added to the S1P solution. Next, 583 mg of 50:50 PLAGA was added to the S1P-^33P solution to achieve a 1:12 (wt./vol.) polymer-solvent ratio. The final solution had 2.92 mg of S1P, 6.8 μL of ^33P, and 583 mg of 50:50 PLAGA mixed in 7 mL of MeCl. The coated allografts were then placed into a glass scintillation vial containing 50 μL of simulated body fluid (SBF) with 4% fatty acid free (FAF) BSA. Following 24 hours incubation, the allografts were removed from the vials and the remaining 4% FAF-BSA SBF was mixed with 5 mL of EcoScintA biodegradable scintillation solution for quantifying drug release using the Beckman Coulter liquid scintillation counter. Allografts were then placed into a new glass vial containing fresh 4% FAF-BSA SBF. This cycle was repeated for a 14-day period to achieve cumulative measurements. Encapsulation efficiency (maximum amount of S1P that can be released) was quantified by placing allografts in MeCl to completely dissolve the drug-containing polymer solution.
To determine total amount of drug loaded into allograft implants and the kinetics of drug release, in vitro experiments were conducted utilizing allografts loaded with S1P-^33P (FIG. 3). Complete degradation of PLAGA occurs between 6-8 weeks. However, substantial S1P release was expected to occur earlier, given the bulk degradation profile of PLAGA. We found approximately 0.64 mg of the original 1 mg of S1P was actually loaded within the polymer-coated allograft (64% loading efficiency). After 14 days incubation, 0.57 mg of S1P was detected in the simulated body fluid (SBF). […]

The conditions of data set [7]: in the absence of a carrier protein; cited from earlier work.
Data set [8] deals with smooth muscle proliferation and migration. As to conditions: daily injections; cited from earlier work.

Entries after “also recorded” stand apart in the source; their conditions may differ.

Turning to `CCCCCCCCc1ccc(CCC(N)(CO)CO)cc1` [FTY720, Fingolimod], in the data set on arterioles, the “microvascular remodeling (arterioles)” value was “promotes formation of new arterioles and structural enlargement of existing arterioles”. Moreover, the “number of blood vessels stained with smooth muscle alpha-actin” value in data set [1] was “significantly increased; also recorded: enhanced the number of smooth-muscle-invested vessels”. For the same compound, the “osseous tissue ingrowth and proportion of mature smooth muscle cell-invested microvessels” value in data set [2] is on record as “significantly increases”. Also, the “number of CD45+ leukocytes within allograft-host bone interface” value with CD45+ leukocytes is reported as “reductions in the number of leukocytes; also recorded: significant reduction”. In addition, the “allograft-host bone integration, histology” value in data set [3] was “superior collagen alignment, osseous tissue generation along the outer edge of the allograft tissue, better preservation of inner cancellous porous regions, and preservation of allograft-tibial alignment”. Besides, in data set [4], the elastic modulus result was “statistically significant increases” and the ultimate compressive strength result is reported as “statistically significant increases”. In addition, the half-life result in data set [5] was “approximately 7 days”.
Compound `CCCCCCCCCCCCC/C=C/[C@@H](O)[C@@H](N)COP(=O)(O)O` [S1P, sphingosine-1-phosphate] had a loading efficiency in data set [6] (50:50 PLAGA 1:12 coated allograft) of 64%. In data set [6] (50:50 PLAGA coated allograft, SBF), the release profile entry was “initial burst release of drug was observed during the first five days”. For the same compound, the “amount of S1P loaded within the polymer-coated allograft” value in data set [6] (of the original 1 mg of S1P, 50:50 PLAGA 1:12 coating) is listed as “approximately 0.64 mg”. Moreover, the “solubility in aqueous solutions” value in [7] is on record as “insoluble”. Besides, the half-life in blood result in [5] is listed as “less than 1 hour”.
Take `CCCCCCCCc1cccc(NC(=O)[C@H](N)CCP(=O)(O)O)c1` [VPC44116]: in data set [8], the “smooth muscle proliferation and migration” value was “significantly decreased”.
